According to ChEMBL document CHEMBL4507257, “Data for DCP probe ABT-100” (2021):

Key:
[1] = test system: Tyrosine-protein kinase ABL1 (Homo sapiens), P00519 [Y253F]; conditions: Compound concentration 1000.0 nM
[2] = molecular target: RAC-beta serine/threonine-protein kinase (Homo sapiens) (UniProt P31751); conditions: Compound concentration 1000.0 nM
[3] = molecular target: 5'-AMP-activated protein kinase catalytic subunit alpha-1 (Homo sapiens) (UniProt Q13131); conditions: Compound concentration 1000.0 nM
5'-AMP-activated protein kinase catalytic subunit alpha-1 (Homo sapiens), sequence (Q13131 whole entry, looked up): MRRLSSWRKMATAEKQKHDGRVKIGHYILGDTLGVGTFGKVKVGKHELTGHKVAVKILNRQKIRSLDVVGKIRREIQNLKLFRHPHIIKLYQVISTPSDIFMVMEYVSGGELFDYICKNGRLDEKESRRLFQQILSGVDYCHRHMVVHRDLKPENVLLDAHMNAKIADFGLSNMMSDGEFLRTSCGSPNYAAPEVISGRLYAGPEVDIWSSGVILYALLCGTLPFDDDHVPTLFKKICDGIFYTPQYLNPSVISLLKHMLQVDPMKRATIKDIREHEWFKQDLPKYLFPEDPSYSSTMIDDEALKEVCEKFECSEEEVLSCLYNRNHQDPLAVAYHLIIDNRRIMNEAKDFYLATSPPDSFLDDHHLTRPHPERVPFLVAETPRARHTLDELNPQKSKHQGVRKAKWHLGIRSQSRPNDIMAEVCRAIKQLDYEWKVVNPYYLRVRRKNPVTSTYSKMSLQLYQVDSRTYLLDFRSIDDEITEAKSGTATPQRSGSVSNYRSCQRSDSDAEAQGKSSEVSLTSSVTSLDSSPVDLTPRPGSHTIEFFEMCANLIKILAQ

[4] = molecular target: Serine/threonine-protein kinase 17B (Homo sapiens) (UniProt O94768); conditions: Compound concentration 1000.0 nM
[5] = molecular target: Dual specificity tyrosine-phosphorylation-regulated kinase 1A (Homo sapiens) (UniProt Q13627); conditions: Compound concentration 1000.0 nM
[6] = test system: Epidermal growth factor receptor (Homo sapiens), P00533 [UNDEFINED MUTATION]; conditions: Compound concentration 1000.0 nM
[7] = test system: Epidermal growth factor receptor (Homo sapiens), P00533 [L861Q]; conditions: Compound concentration 1000.0 nM
[8] = molecular target: Tyrosine-protein kinase Fer (Homo sapiens) (UniProt P16591); conditions: Compound concentration 1000.0 nM
[9] = test system: Receptor-type tyrosine-protein kinase FLT3 (Homo sapiens), P36888 [K663Q]; conditions: Compound concentration 1000.0 nM
[10] = molecular target: G protein-coupled receptor kinase 3 (Homo sapiens) (UniProt P35626); conditions: Compound concentration 1000.0 nM
[11] = molecular target: G protein-coupled receptor kinase 4 (Homo sapiens) (UniProt P32298); conditions: Compound concentration 1000.0 nM
[12] = molecular target: Mitogen-activated protein kinase 9 (Homo sapiens) (UniProt P45984); conditions: Compound concentration 1000.0 nM
Mitogen-activated protein kinase 9 (Homo sapiens), sequence (P45984 whole entry, looked up): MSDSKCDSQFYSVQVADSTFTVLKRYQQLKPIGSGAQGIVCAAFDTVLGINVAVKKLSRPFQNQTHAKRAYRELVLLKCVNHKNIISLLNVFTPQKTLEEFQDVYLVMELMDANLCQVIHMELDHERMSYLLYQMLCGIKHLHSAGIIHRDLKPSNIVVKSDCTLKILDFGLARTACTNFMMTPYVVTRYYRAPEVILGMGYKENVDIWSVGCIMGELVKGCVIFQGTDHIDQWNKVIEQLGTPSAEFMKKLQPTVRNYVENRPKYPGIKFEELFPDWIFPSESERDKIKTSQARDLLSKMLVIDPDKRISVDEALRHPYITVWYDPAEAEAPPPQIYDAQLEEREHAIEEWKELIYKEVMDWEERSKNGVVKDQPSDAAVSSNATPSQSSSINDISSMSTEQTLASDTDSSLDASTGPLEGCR

[13] = test system: Mast/stem cell growth factor receptor Kit (Homo sapiens), P10721 [V559D,V654A]; conditions: Compound concentration 1000.0 nM
[14] = molecular target: Serine/threonine-protein kinase MARK2 (Homo sapiens) (UniProt Q7KZI7); conditions: Compound concentration 1000.0 nM
[15] = molecular target: Mitogen-activated protein kinase kinase kinase 11 (Homo sapiens) (UniProt Q16584); conditions: Compound concentration 1000.0 nM
[16] = molecular target: Serine/threonine-protein kinase 24 (Homo sapiens) (UniProt Q9Y6E0); conditions: Compound concentration 1000.0 nM
[17] = molecular target: Myosin light chain kinase 2, skeletal/cardiac muscle (Homo sapiens) (UniProt Q9H1R3); conditions: Compound concentration 1000.0 nM
[18] = molecular target: Serine/threonine-protein kinase Nek3 (Homo sapiens) (UniProt P51956); conditions: Compound concentration 1000.0 nM
[19] = molecular target: Mitogen-activated protein kinase 12 (Homo sapiens) (UniProt P53778); conditions: Compound concentration 1000.0 nM
[20] = molecular target: 3-phosphoinositide-dependent protein kinase 1 (Homo sapiens) (UniProt O15530); conditions: Compound concentration 1000.0 nM
[21] = test system: Phosphatidylinositol 4,5-bisphosphate 3-kinase catalytic subunit alpha isoform (Homo sapiens), P42336 [I800L]; conditions: Compound concentration 1000.0 nM
[22] = molecular target: Phosphatidylinositol 4,5-bisphosphate 3-kinase catalytic subunit delta isoform (Homo sapiens) (UniProt O00329); conditions: Compound concentration 1000.0 nM
[23] = molecular target: cAMP-dependent protein kinase catalytic subunit beta (Homo sapiens) (UniProt P22694); conditions: Compound concentration 1000.0 nM
[24] = molecular target: Serine/threonine-protein kinase D2 (Homo sapiens) (UniProt Q9BZL6); conditions: Compound concentration 1000.0 nM
[25] = test system: Proto-oncogene tyrosine-protein kinase receptor Ret (Homo sapiens), P07949 [M918T]; conditions: Compound concentration 1000.0 nM
[26] = molecular target: Receptor-interacting serine/threonine-protein kinase 4 (Homo sapiens) (UniProt P57078); conditions: Compound concentration 1000.0 nM
[27] = molecular target: Dual serine/threonine and tyrosine protein kinase (Homo sapiens) (UniProt Q6XUX3); conditions: Compound concentration 1000.0 nM
[28] = molecular target: Rho-associated protein kinase 1 (Homo sapiens) (UniProt Q13464); conditions: Compound concentration 1000.0 nM
[29] = molecular target: Ribosomal protein S6 kinase alpha-4 (Homo sapiens) (UniProt O75676); conditions: Compound concentration 1000.0 nM
Ribosomal protein S6 kinase alpha-4 (Homo sapiens), sequence (O75676 whole entry, looked up): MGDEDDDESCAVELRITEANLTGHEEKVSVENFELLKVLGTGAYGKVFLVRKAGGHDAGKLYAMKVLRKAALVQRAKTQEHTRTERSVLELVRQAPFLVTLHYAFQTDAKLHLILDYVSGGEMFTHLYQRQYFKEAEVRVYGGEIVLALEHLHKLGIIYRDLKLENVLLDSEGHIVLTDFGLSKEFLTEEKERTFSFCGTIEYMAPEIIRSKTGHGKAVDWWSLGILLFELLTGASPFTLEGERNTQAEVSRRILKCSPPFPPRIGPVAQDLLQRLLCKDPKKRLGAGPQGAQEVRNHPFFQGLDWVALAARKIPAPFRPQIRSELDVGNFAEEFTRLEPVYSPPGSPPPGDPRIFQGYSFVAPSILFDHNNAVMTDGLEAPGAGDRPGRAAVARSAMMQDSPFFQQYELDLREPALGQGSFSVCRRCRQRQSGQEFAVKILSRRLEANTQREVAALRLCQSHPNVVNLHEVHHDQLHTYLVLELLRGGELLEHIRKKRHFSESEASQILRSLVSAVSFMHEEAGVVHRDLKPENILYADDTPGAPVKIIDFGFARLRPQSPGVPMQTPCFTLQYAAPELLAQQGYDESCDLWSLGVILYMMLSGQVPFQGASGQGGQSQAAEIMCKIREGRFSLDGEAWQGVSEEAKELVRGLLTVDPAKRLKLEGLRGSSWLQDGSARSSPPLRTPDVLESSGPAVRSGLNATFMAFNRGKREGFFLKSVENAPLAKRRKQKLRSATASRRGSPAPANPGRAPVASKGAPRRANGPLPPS

[30] = molecular target: Serine/threonine-protein kinase 35 (Homo sapiens) (UniProt Q8TDR2); conditions: Compound concentration 1000.0 nM
Serine/threonine-protein kinase 35 (Homo sapiens), sequence (Q8TDR2 whole entry): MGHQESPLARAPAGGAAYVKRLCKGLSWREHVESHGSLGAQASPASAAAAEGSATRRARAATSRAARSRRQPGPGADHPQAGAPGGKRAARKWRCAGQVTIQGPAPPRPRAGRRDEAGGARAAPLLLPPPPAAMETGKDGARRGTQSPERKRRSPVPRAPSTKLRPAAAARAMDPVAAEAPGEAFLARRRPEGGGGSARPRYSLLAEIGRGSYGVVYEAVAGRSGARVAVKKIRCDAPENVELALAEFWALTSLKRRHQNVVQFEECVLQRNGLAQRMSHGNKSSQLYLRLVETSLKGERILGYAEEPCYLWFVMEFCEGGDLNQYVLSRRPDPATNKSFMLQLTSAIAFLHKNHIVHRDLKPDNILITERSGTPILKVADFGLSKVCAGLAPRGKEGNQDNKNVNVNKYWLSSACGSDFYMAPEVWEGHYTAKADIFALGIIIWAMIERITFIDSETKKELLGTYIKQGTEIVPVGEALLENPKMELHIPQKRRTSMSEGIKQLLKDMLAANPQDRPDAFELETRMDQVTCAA

[31] = molecular target: Serine/threonine-protein kinase 36 (Homo sapiens) (UniProt Q9NRP7); conditions: Compound concentration 1000.0 nM
Serine/threonine-protein kinase 36 (Homo sapiens), sequence (Q9NRP7 whole entry): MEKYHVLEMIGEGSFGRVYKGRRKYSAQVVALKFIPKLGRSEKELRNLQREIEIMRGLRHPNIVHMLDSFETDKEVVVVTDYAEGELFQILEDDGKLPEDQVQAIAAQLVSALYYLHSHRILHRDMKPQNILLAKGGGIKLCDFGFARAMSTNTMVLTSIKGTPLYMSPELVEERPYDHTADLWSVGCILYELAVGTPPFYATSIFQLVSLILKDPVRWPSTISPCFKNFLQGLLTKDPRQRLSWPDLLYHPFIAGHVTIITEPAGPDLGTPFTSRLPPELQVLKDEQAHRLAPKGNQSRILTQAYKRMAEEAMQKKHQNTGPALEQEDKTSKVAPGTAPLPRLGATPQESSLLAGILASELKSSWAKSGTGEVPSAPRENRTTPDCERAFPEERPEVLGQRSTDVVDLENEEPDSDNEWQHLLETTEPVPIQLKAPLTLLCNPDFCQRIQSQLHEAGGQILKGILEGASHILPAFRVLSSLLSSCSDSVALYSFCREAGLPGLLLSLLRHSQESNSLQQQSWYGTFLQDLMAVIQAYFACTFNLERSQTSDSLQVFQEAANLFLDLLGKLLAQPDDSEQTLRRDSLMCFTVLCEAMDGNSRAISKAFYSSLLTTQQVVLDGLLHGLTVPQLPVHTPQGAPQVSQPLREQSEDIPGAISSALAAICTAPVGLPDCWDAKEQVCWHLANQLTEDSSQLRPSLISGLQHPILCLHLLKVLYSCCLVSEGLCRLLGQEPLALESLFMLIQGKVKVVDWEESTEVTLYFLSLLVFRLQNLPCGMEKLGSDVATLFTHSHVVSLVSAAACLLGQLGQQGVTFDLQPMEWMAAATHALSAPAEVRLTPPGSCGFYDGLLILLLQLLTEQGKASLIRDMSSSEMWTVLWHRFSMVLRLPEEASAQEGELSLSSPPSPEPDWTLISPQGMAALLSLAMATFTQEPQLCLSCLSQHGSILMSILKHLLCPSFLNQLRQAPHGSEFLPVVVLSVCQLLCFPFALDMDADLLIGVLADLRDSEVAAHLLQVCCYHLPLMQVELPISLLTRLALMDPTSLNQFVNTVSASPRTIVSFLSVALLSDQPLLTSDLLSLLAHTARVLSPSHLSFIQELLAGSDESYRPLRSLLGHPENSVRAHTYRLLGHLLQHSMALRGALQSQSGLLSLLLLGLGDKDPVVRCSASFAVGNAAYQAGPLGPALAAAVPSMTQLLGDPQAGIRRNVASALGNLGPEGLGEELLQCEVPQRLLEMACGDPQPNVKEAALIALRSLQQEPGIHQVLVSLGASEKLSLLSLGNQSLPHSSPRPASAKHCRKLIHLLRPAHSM

[32] = molecular target: Angiopoietin-1 receptor (Homo sapiens) (UniProt Q02763); conditions: Compound concentration 1000.0 nM
[33] = molecular target: Non-receptor tyrosine-protein kinase TNK1 (Homo sapiens) (UniProt Q13470); conditions: Compound concentration 1000.0 nM
[34] = molecular target: Phosphatidylinositol 3-kinase catalytic subunit type 3 (Homo sapiens) (UniProt Q8NEB9); conditions: Compound concentration 1000.0 nM
[35] = molecular target: Wee1-like protein kinase (Homo sapiens) (UniProt P30291); conditions: Compound concentration 1000.0 nM
[36] = molecular target: 5-hydroxytryptamine receptor 2A (Homo sapiens) (UniProt P28223); conditions: Compound concentration 10.0 uM
[37] = molecular target: Sodium-dependent dopamine transporter (Homo sapiens) (UniProt Q01959); conditions: Compound concentration 10.0 uM
Sodium-dependent dopamine transporter (Homo sapiens), sequence (Q01959 whole entry): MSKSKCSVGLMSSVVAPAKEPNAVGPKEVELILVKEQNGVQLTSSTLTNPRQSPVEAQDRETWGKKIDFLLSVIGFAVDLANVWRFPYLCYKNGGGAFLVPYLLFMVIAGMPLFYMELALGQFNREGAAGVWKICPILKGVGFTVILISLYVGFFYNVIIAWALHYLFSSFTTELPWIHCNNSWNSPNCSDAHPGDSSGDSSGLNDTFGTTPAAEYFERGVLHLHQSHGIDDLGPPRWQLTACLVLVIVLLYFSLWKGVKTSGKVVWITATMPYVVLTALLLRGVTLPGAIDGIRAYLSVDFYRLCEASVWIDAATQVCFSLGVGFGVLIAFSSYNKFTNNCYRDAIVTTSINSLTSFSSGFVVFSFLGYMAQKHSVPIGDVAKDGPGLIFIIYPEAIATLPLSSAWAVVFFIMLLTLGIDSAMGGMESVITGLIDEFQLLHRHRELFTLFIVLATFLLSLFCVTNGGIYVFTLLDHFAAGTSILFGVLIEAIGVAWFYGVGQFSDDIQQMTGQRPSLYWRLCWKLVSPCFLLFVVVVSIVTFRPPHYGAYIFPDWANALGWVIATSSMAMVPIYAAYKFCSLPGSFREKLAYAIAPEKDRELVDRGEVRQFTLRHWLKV

[38] = molecular target: T1, Muscarinic acetylcholine receptor M1 (Homo sapiens) (UniProt P11229); conditions: Compound concentration 10.0 uM
T1 sequence (whole entry): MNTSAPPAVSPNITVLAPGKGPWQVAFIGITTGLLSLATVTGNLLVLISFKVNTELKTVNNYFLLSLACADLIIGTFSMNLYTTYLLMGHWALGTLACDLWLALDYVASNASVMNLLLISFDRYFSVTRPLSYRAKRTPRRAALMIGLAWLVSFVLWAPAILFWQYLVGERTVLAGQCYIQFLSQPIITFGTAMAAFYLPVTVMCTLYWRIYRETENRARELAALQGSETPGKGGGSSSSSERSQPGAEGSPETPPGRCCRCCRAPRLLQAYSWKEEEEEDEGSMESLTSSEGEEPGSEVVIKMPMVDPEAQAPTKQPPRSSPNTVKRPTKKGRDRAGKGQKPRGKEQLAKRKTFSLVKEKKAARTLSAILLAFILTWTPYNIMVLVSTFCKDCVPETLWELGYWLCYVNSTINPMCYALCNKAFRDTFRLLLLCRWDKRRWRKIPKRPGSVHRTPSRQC

[39] = species: Rattus norvegicus; conditions: Compound concentration 10.0 uM

RAC-beta serine/threonine-protein kinase (Homo sapiens), sequence (P31751 whole entry): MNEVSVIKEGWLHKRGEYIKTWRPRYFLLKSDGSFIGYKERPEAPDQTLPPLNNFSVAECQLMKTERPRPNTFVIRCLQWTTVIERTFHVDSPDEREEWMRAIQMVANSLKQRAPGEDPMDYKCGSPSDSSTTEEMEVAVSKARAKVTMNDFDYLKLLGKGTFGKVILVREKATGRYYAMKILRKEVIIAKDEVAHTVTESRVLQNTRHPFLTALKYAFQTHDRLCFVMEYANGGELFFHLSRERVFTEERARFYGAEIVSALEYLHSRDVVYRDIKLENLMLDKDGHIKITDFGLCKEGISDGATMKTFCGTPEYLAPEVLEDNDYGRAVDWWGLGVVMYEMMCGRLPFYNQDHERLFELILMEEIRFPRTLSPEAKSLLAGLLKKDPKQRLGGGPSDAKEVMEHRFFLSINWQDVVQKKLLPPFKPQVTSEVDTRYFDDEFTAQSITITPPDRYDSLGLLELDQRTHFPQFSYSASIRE

SMILES | residual activity [1] | residual activity [2] | residual activity [3] | residual activity [4] | residual activity [5] | residual activity [6] | residual activity [7] | residual activity [8] | residual activity [9] | residual activity [10] | residual activity [11] | residual activity [12] | residual activity [13] | residual activity [14] | residual activity [15] | residual activity [16] | residual activity [17] | residual activity [18] | residual activity [19] | residual activity [20] | other results
Cn1cncc1[C@@](O)(COc1ccc(C#N)cc1-c1ccc(OC(F)(F)F)cc1)c1ccc(C#N)cc1 [A-108] | 92% | 78% | 100% | 84% | 99% | 60% | 100% | 100% | 64% | 100% | 56% | 92% | 100% | 100% | 100% | 100% | 100% | 87% | 100% | 96% | residual activity [21]: 84%; residual activity [22]: 84%; residual activity [23]: 100%; residual activity [24]: 100%; residual activity [25]: 98%; residual activity [26]: 94%; residual activity [27]: 100%; residual activity [28]: 100%; residual activity [29]: 93%; residual activity [30]: 100%; residual activity [31]: 93%; residual activity [32]: 92%; residual activity [33]: 88%; residual activity [34]: 100%; residual activity [35]: 100%; inhibition [36]: -4.18%; inhibition [37]: 6.63%; inhibition [38]: 25.8%; inhibition [39]: 9.56%
Cn1cncc1[C@](O)(COc1ccc(C#N)cc1-c1ccc(OC(F)(F)F)cc1)c1ccc(C#N)cc1 [ABT-100] | 94% | 81% | 99% | 64% | 81% | 80% | 71% | 83% | 90% | 48% | 62% | 89% | 100% | 95% | 86% | 90% | 78% | 96% | 100% | 87% | residual activity [21]: 85%; residual activity [22]: 79%; residual activity [23]: 93%; residual activity [24]: 84%; residual activity [25]: 95%; residual activity [26]: 100%; residual activity [27]: 90%; residual activity [28]: 100%; residual activity [29]: 76%; residual activity [30]: 100%; residual activity [31]: 80%; residual activity [32]: 92%; residual activity [33]: 56%; residual activity [34]: 91%; residual activity [35]: 100%; inhibition [36]: -0.429%; inhibition [37]: 9.99%; inhibition [38]: -4.07%; inhibition [39]: -1.86%
